Measured values from patent US20250092065A1, “2-(INDAZOL-5-YL)-6-(PIPERIDIN-4-YL)-1,7-NAPHTHYRIDINE DERIVATIVES AND RELATED COMPOUNDS AS MODULATORS FOR SPLICING NUCLEIC ACIDS AND FOR THE TREATMENT OF PROLIFERATIVE DISEASES” (REMIX THERAPEUTICS INC., priority 2022, published 2025).
Read-outs that look alike come from different tables or passages of the source.

What was measured:
HTT mRNA = assay: RT-qPCR splicing assay, HTT mRNA canonical (CJ) and alternative (AJ) junction; type: cell-based, human; conditions: Homo sapiens
How it was run: (§1)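 A673 or K562 cells treated 24 h at 37 °C with 11-point 3-fold dilutions (top final 10 uM, DMSO ≤0.25%). Lysates analysed by one-step RT-qPCR for canonical (CJ) and alternative-exon (AJ) junctions, normalized to GAPDH, GUSB or PPIA. ΔΔCt vs DMSO, RQ = 2^(−ΔΔCt), expressed as percentage response.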

Target C [1] = assay: RT-qPCR canonical junction panel assay, Target C mRNA; type: cell-based; conditions: Table 4, read-out: Target C IC50 (decrease in CJ mRNA levels)
Description: Compounds described herein were used to modulate RNA transcript abundance in cells. The expression of a target mRNA was measured by detecting the formation of an exon-exon junction in the canonical transcript (CJ). A compound mediated exon-inclusion event was detected by observing an increase in formation of a new junction with an alternative exon (AJ). Real-time qPCR assays were used to detect these splicing switches and interrogate the potency of various compounds towards different target genes. A high-throughput real time quantitative PCR (RT-qPCR) assay was developed to measure these two isoforms of the mRNA (CJ and AJ) for exemplary genes, such as HTT, SMN2, and MYB, together with a control housekeeping gene, GAPDH or GUSB or PPIA, used for normalization. Briefly, the A673 or K562 cell line was treated with various compounds described herein (e.g., compounds of Formula (I)). After treatment, the levels of the HTT, MYB, or SMN2 mRNA targets were determined from each sample of cell lysate by cDNA synthesis followed by qPCR.
The data analysis was performed by first determining the ΔCt vs the housekeeper gene. This ΔCt was then normalized against the DMSO control (ΔΔCt) and converted to RQ (relative quantification) using the 2^(−ΔΔCt) equation. The RQ were then converted to a percentage response by arbitrarily setting an assay window of 3.5 and 4.0 ΔCt for HTT-CJ and MYB-CJ respectively and an assay window of 9 and 3 ΔCt for HTT-AJ and MYB-AJ in 96 well format (50,000 K562 cells/well and 15,000 A673 cells per well) and an assay window of 3 and 4 ΔCt for HTT-CJ and MYB-CJ respectively and an assay window of 5 and 3 ΔCt for HTT-AJ and MYB-AJ respectively in 384 well format (8,000 K562 cells/well example). […] The percentage response was then fitted to the 4 parametric logistic equation to evaluate the concentration dependence of compound treatment. The increase in AJ mRNA is reported as AC50 (compound concentration having 50% response in AJ increase) while the decrease in CJ mRNA levels is reported as IC50 (compound concentration having […] in CJ decrease).
Additional studies were carried out for a larger panel of genes using the protocol provided above. The junction between flanking upstream and downstream exons was used to design canonical junction Qpcr assays. At least one of the forward primer, reverse primer or the CY5-labeled 5′ nuclease probe (with 3′ quencher such as ZEN/Iowa Black FQ) was designed to overlap with the exon junction to capture the CJ Mrna transcript. BLAST was used to confirm the specificity of the probeset and parameters suCH As melting temperature, GC content, amplicon size, and primer dimer formation are considered during their design. Data for the decrease in CJ Mrna levels for four exemplary genes (HTT, SMN2, MYB, and Target C) analyzed in this panel are reported as IC50 (compound concentration having […] in CJ decrease).

MYB mRNA = assay: RT-qPCR splicing assay, MYB mRNA canonical (CJ) and alternative (AJ) junction; type: cell-based, human; conditions: Homo sapiens
How it was run: as §1

K562 cells = assay: Cell Titer Glo 2.0 cell viability (toxicity) assay, K562; conditions: 500 cells/well, 72 hours
MYB = assay: HiBiT protein abundance assay, MYB (K562 HiBiT knock-in); type: cell-based, human; conditions: HiBiT knock-in K562 cells, 24 hours, top dose 10 μM
How it was run: (§2)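 Luminescence readout: Nano-Glo HiBiT lytic detection after 24 h compound exposure of K562 HiBiT knock-in cells, 10000 cells/well. Dosing 10-pt, 3-fold, top 10 μM final. % response vs untreated parental K562 and DMSO controls; 4PL fit, IC50 = concentration giving 50% protein abundance.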

Target C [2] = assay: HiBiT protein abundance assay, Target C (K562 HiBiT knock-in); type: cell-based, human; conditions: HiBiT knock-in K562 cells, 24 hours, top dose 10 μM
How it was run: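 K562 HiBiT knock-in cells (10000/well) were treated 24 h at 37° C with a 10-point 3-fold dilution series (top 10 μM final, ≤0.25% DMSO). HiBiT luminescence was read after lytic LgBiT detection. Percent response used unmodified K562 and DMSO-treated knock-in controls, and IC50 came from a four-parameter fit at 50% of untreated.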

HTT = assay: HiBiT protein abundance assay, HTT (K562 HiBiT knock-in); type: cell-based, human; conditions: HiBiT knock-in K562 cells, 24 hours, top dose 10 μM
How it was run: as §2

SMN2 mRNA = assay: RT-qPCR splicing assay, SMN2 mRNA; type: cell-based, human; conditions: Homo sapiens, canonical junction qPCR panel, Table 4; read-out: SMN2 IC50 (decrease in CJ mRNA levels)
How it was run: as §1

[3] = RT-qPCR, HTT alternative junction mRNA increase, read-out: HTT AJ (increase in alternative junction mRNA, AC50)
[4] = RT-qPCR, HTT canonical junction mRNA decrease, read-out: HTT CJ (decrease in canonical junction mRNA, IC50)
[5] = canonical junction qPCR panel, Table 4, read-out: HTT IC50 (decrease in CJ mRNA levels)
[6] = RT-qPCR, MYB alternative junction mRNA increase, read-out: MYB AJ (increase in alternative junction mRNA, AC50)
[7] = RT-qPCR, MYB canonical junction mRNA decrease, read-out: MYB CJ (decrease in canonical junction mRNA, IC50)
[8] = canonical junction qPCR panel, Table 4, read-out: MYB IC50 (decrease in CJ mRNA levels)
[9] = HTT alternative junction mRNA, RT-qPCR, read-out: HTT AJ (increase in AJ mRNA, AC50)
[10] = HTT canonical junction mRNA, RT-qPCR, read-out: HTT CJ (decrease in CJ mRNA levels, IC50)
[11] = MYB alternative junction mRNA, RT-qPCR, read-out: MYB AJ (increase in AJ mRNA, AC50)
[12] = MYB canonical junction mRNA, RT-qPCR, read-out: MYB CJ (decrease in CJ mRNA levels, IC50)

Row | Structure (SMILES) | IC50 (HTT mRNA; [4]) [nM] | IC50 (HTT mRNA; [5]) [nM] | IC50 (Target C [1]) [nM] | IC50 (MYB mRNA; [7]) [nM] | IC50 (MYB mRNA; [8]) [nM] | IC50 (MYB) [nM] | IC50 (HTT mRNA; [10]) [nM] | IC50 (Target C [2]) [nM] | IC50 (HTT) [nM] | IC50 (SMN2 mRNA) [nM] | IC50 (MYB mRNA; [12]) [nM] | AC50 (HTT mRNA; [3]) [nM] | AC50 (MYB mRNA; [6]) [nM] | Effect of Exemplary Compounds on Cell Viability, K562 (K562 cells) | AC50 (HTT mRNA; [9]) [nM] | AC50 (MYB mRNA; [11]) [nM]
1 | Cc1c(O)c(-c2nc(C3CCC3)c3cc(N4C[C@H](C)N[C@@H](C)C4)ccc3n2)cc2cn(C)nc12 (single isomer, unassigned) [Compound 794] | > 10000 | > 10000 | > 10000 | 100 to 1000 | 100 to 1000 | – | – | – | – | – | – | 1000 to 10000 | 100 to 1000 | B (B represents 100-1000 nM) | – | –
2 | Cc1cn2nc(-c3ncc4cc(N5C[C@H](C)N[C@@H](C)C5)ccc4n3)cc(C)c2n1 (single isomer, unassigned) [Compound 798] | > 10000 | > 10000 | > 10000 | 1000 to 10000 | 1000 to 10000 | – | – | – | – | – | – | > 10000 | 100 to 1000 | C (C represents 1000-9999 nM) | – | –
3 | Cn1cc2cc(-c3ccc4nc(N5CC[C@H](N[C@H]6C[C@H](F)C6)C5)ccc4n3)c(O)cc2n1 [Compound 247] | – | < 100 | – | – | < 100 | 100 to 1000 | < 100 | 100 to 1000 | 100 to 1000 | < 100 | < 100 | – | – | B (B represents 100-1000 nM) | 100 to 1000 | < 100
4 | Cc1nc2c(F)c(O)c(-c3ccc4nc(N5CC[C@@H](NC6CC6)C5)ccc4n3)cc2o1 [Compound 253] | – | < 100 | – | – | < 100 | < 100 | < 100 | < 100 | < 100 | < 100 | < 100 | – | – | A (A represents <100 nM) | < 100 | < 100
5 | Cc1nc2cc(O)c(-c3ccc4nc(N5CC[C@H](NC6(C)CC6)C5)ccc4n3)cc2o1 [Compound 257] | – | < 100 | – | – | < 100 | < 100 | < 100 | < 100 | < 100 | < 100 | < 100 | – | – | B (B represents 100-1000 nM) | < 100 | < 100
6 | Cc1nc2cc(O)c(-c3ccc4nc(N5CC[C@@H](NC6(C)CC6)C5)ccc4n3)cc2o1 [Compound 258] | – | < 100 | – | – | 100 to 1000 | 100 to 1000 | < 100 | 100 to 1000 | 100 to 1000 | < 100 | 100 to 1000 | – | – | C (C represents 1000-9999 nM) | < 100 | 100 to 1000
7 | Cc1c(O)c(-c2ccc3nc(N4CC[C@@H](NC5CC5)C4)ccc3n2)cc2cn(C)nc12 [Compound 259] | – | < 100 | – | – | < 100 | < 100 | < 100 | < 100 | < 100 | < 100 | < 100 | – | – | B (B represents 100-1000 nM) | < 100 | < 100
8 | Cc1c(O)c(-c2nc(C3CCC3)c3cc(N4C[C@@H](C)N[C@@H](C)C4)ccc3n2)cc2cn(C)nc12 [Compound 790, 5-{4-cyclobutyl-6-[(3R,5S)-3,5-dimethylpiperazin-1-yl]quinazolin-2-yl}-2,7-dimethylindazol-6-ol] | 1000 to 10000 | 1000 to 10000 | > 10000 | 1000 to 10000 | 1000 to 10000 | – | – | – | – | – | – | > 10000 | 1000 to 10000 | C (C represents 1000-9999 nM) | – | –
9 | C[C@@H]1CN(c2ccc3nc(-c4cc5cn(C)nc5cc4O)nc(C4CCC4)c3c2)C[C@H](C)N1 [Compound 791, 5-{4-cyclobutyl-6-[(3R,5S)-3,5-dimethylpiperazin-1-yl]quinazolin-2-yl}-2-methylindazol-6-ol] | 1000 to 10000 | 1000 to 10000 | > 10000 | 1000 to 10000 | 1000 to 10000 | – | – | – | – | – | – | > 10000 | 1000 to 10000 | B (B represents 100-1000 nM) | – | –

The next lines start with results.

Row | IC50 (HTT mRNA; [4]) [nM] | IC50 (HTT mRNA; [5]) [nM] | IC50 (Target C [1]) [nM] | IC50 (MYB mRNA; [7]) [nM] | IC50 (MYB mRNA; [8]) [nM] | IC50 (MYB) [nM] | IC50 (HTT mRNA; [10]) [nM] | IC50 (Target C [2]) [nM] | IC50 (HTT) [nM] | IC50 (SMN2 mRNA) [nM] | IC50 (MYB mRNA; [12]) [nM] | Structure (SMILES) | AC50 (HTT mRNA; [3]) [nM] | AC50 (MYB mRNA; [6]) [nM] | Effect of Exemplary Compounds on Cell Viability, K562 (K562 cells) | AC50 (HTT mRNA; [9]) [nM] | AC50 (MYB mRNA; [11]) [nM]
10 | – | < 100 | – | – | < 100 | < 100 | < 100 | < 100 | < 100 | < 100 | < 100 | Cc1nc2c(F)c(O)c(-c3ccc4nc(N5CC[C@H](NC6CC6)C5)ccc4n3)cc2o1 [Compound 254] | – | – | A (A represents <100 nM) | < 100 | < 100
11 | – | < 100 | – | – | < 100 | < 100 | < 100 | < 100 | < 100 | < 100 | < 100 | Cc1nc2c(F)c(O)c(-c3ccc4nc(N5CC[C@H](NC(C)(C)C)C5)ccc4n3)cc2o1 [Compound 255] | – | – | A (A represents <100 nM) | < 100 | < 100
12 | – | < 100 | – | – | < 100 | < 100 | < 100 | < 100 | < 100 | < 100 | < 100 | Cc1c(O)c(-c2ccc3nc(N4CC[C@H](NC5CC5)C4)ccc3n2)cc2cn(C)nc12 [Compound 260] | – | – | B (B represents 100-1000 nM) | < 100 | < 100
13 | 100 to 1000 | 100 to 1000 | 1000 to 10000 | 100 to 1000 | 100 to 1000 | – | – | – | – | – | – | Cc1c(O)c(-c2ncc3cc(N4CCNC5(CC5)C4)ccc3n2)cc2cn(C)nc12 [Compound 792, 5-(6-{4,7-diazaspiro[2.5]octan-7-yl}quinazolin-2-yl)-2,7-dimethylindazol-6-ol] | 1000 to 10000 | 100 to 1000 | B (B represents 100-1000 nM) | – | –
